Laboratory results reported in PMC2806525, “Proteinase-activated receptor-2 mediated inhibition of TNFα-stimulated JNK activation — A novel paradigm for Gq/11 linked GPCRs” (Cellular Signalling, 2010).
Entries after “also recorded” stand apart in the source; their conditions may differ.

How the values were obtained:
β2 [1] = conditions: ref [34]; cited from earlier work
β2 [2] = conditions: ref [34]; cited from earlier work; remark: listed apart in the source
Excerpt: (§1) Thus, we can discern two agonist-mediated directed events which relate to the activation of JNK. This type of m ...

human PAR2 [3] = target: T1, human PAR2 (Homo sapiens, UniProt P55085); conditions: ref [17]; cited from earlier work
T1 construct: expressed in transfected cells
T1 sequence (P55085 26-397): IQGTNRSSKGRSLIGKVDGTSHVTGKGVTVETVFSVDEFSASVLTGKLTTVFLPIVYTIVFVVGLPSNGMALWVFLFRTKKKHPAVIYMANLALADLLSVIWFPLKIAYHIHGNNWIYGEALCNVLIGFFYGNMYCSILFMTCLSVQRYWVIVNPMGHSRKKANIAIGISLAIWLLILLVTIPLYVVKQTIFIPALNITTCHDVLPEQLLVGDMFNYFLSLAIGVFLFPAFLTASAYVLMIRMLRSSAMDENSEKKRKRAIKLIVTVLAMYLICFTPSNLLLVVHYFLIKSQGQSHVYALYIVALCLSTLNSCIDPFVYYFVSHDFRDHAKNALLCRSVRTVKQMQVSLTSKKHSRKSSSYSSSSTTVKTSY
Excerpt: as §1

human PAR2 [4] = target: T1, human PAR2; assay: TNFα-stimulated JNK activity (in vitro c-Jun phosphorylation), PAR2 agonist pre-incubation, PAR2 NCTC2544 cells (clone G); format: cell-based; conditions: pre-incubation 30 min, TNFα 10 ng/ml 30 min
Protocol: (§2) Human skin epithelial cells NCTC2544 were maintained in M199 medium with Earl's salt supplement, 10% (v/v) foetal calf serum, L-glutamine (27 µg/ml), penicillin (250 U/ml), and streptomycin (25 mg/ml). NCTC2544 cells stably expressing human PAR2 (clone G) were maintained in complete M199 medium containing 400 μg/ml of Geneticin for selection pressure and passaged using Versene (2% EDTA/PBS). EAhy-926 cells were produced by hybridizing human umbilical vein endothelial cells (HUVECs) with the epithelial cell line A549 [27] and maintained in Dulbecco's Modified Eagle's Medium (DMEM) supplemented with 10% foetal calf serum (FCS), hypoxanthine/aminopterin/thymidine (HAT supplement), penicillin (250 U/ml) and streptomycin (25 mg/ml), and cells were passaged using Versene.
To measure JNK activity, cells were stimulated as appropriate and the reaction terminated by rapid aspiration and the addition of ice-cold PBS. […] Phosphorylation of GST-c-Jun was then determined by autoradiography. […]
(§3) Fig. 1 PAR2 activation mediates inhibition of TNFα-stimulated JNK activity and phosphorylation in PAR2 NCTC2544 cells. […] Samples were assessed for JNK activity (Panel A) or phospho-JNK levels (Panel C) as outlined in the Methods section. Gels from JNK assays were quantified (Panel B). Each value represents the mean ± s.e.m from at least 4 experiments and data was quantified by densitometry. ⁎P < 0.05, ⁎⁎P < 0.01 compared to TNFα alone.
Fig. 4 Concentration response effects of PAR2 peptides for activation of JNK and inhibition of TNFα-stimulated JNK. PAR2 expressing NCTC2544 cells (clone G) were incubated with increasing concentrations of SLIGKV-OH or 2f-LIGKV-OH for 30 min and assayed for JNK activity (Panel B) or stimulated for a further 30 min with TNFα (+) before JNK activity was assessed (Panel A). Samples were assessed for JNK activity as outlined in the Methods section. Gels from JNK assays were quantified (Panel C). Each value represents the mean ± s.e.m from at least 4 experiments and data was quantified by densitometry.

human PAR2 [5] = target: T1, human PAR2; assay: TNFα-stimulated JNK phosphorylation (Western blot), PAR2 NCTC2544 cells (clone G); format: cell-based; conditions: pre-incubation 30 min, TNFα 10 ng/ml 30 min
Protocol: as §2
(§4) Proteins were separated by 10% SDS–PAGE and transferred onto nitrocellulose. […]
as §3

JNK = assay: TNFα-stimulated JNK phosphorylation and activity, PAR2 NCTC2544 cells; format: cell-based, human; conditions: TNFα 10 ng/ml 30 min, untreated cells
Protocol: as §2, §4
To measure JNK activity, cells were stimulated as appropriate and the reaction terminated by rapid aspiration and the addition of ice-cold PBS. […] Phosphorylation of GST-c-Jun was then determined by autoradiography.
Fig. 6 Gq/11 is essential for PAR2 mediated inhibition of JNK activation by TNFα. […] Samples were assessed for phospho-JNK levels (Panels A and D) or JNK activity (Panel B) as outlined in the Methods section. Gels from JNK activity assays were quantified by densitometry (Panel C). […]

ERK = ERK activation, PAR2 NCTC2544 cells; format: cell-based, human; conditions: response to TNFα; data not shown
Protocol: as §2

TNFR1/TRADD = TNFR1/TRADD complex formation (TNFR1 immuno-precipitation, TRADD immuno-blot), PAR2 expressing cells; format: cell-based, human; conditions: TNFα 10 ng/ml 30 min, versus basal
Protocol: as §2
Proteins were separated by 10% SDS–PAGE and transferred onto nitrocellulose. The membranes were blocked for non-specific binding for 2 h in 2% BSA (w/v) diluted in NATT buffer (50 mM Tris–HCl, 150 mM NaCl, 0.2% (v/v) Tween-20). The blots were then incubated overnight with 50 ng/ml primary antibody diluted in 0.2% BSA (w/v) in NATT buffer. The blots were washed with NATT buffer for 90 min and incubated with HRP-conjugated secondary antibody (20 ng/ml in 0.2% BSA (w/v) diluted in NATT buffer) for 2 h. After a further 90 min wash, the blots were subjected to ECL reagent and exposed to Kodak X-ray film.
(§5) For immuno-precipitation of TNFR1, equal amounts of pre-cleared cell lysates were incubated in Tris–HCl buffer, pH 7.4, containing 50 mM NaCl, 1 mM EDTA, 1 mM EGTA, 1% (w/v) Triton X-100, and 0.5% (w/v) Nonidet P-40, with 2 μg TNFR1 antibody, pre-coupled to protein G, for 3 h. Lysates were recovered by sequential washes in solubilisation buffer and in the same buffer lacking detergents. Precipitates were assessed for TRADD or RIP content using Western blotting.
Fig. 7 PAR2 mediated TNFR1 adapter protein disruption in PAR2 expressing cells. In Panel A, cells were pre-treated with peptide (100 μM) or vehicle prior to stimulation with TNFα (10 ng/ml) for 30 min. Lysates were immuno-precipitated for TNFR1 and immuno-blotted for TRADD and/or RIP, as outlined in the Methods section. In Panel B cells were pre-treated with 100 nM YM254890 or 3 μM GF109203X for 30 min prior to pre-treatment with peptide (100 μM), for 30 min, then incubated for a further 30 min with TNFα (10 ng/ml). TNFR1 immuno-precipitates were immuno-blotted for TRADD. Each gel is representative of at least three experiments.

TNFR1/RIP = TNFR1/RIP complex formation (TNFR1 immuno-precipitation, RIP immuno-blot), PAR2 expressing cells; format: cell-based, human; conditions: TNFα 10 ng/ml 30 min, versus basal
Protocol: as §2
Proteins were separated by 10% SDS–PAGE and transferred onto nitrocellulose. The membranes were blocked for non-specific binding for 2 h in 2% BSA (w/v) diluted in NATT buffer (50 mM Tris–HCl, 150 mM NaCl, 0.2% (v/v) Tween-20). […]
as §5, with “Lysates were recovered by sequential washes in solubilisation buffer and in the same buffer lacking detergents.” left out, “blotting. […]” for “blotting.”

For `CC(C)NCC(O)COc1cccc2ccccc12` (stereo not drawn) [propranolol], the “ERK activation, functional behaviour” value (β2 [1]) is listed as “partial agonist” and the “cAMP accumulation, functional behaviour” value (β2 [2]) is listed as “inverse agonist”.

In the case of trypsin, the “JNK activity on PAR2 activation” value (human PAR2 [3]) is listed as “increase in JNK activity”, the “effect on TNFα-stimulated JNK activity” value (human PAR2 [4]) is listed as “strongly inhibited both the phosphorylation and activity of JNK; also recorded: concentration-dependent inhibition of subsequent TNFα-stimulated JNK activity; also recorded: strongly mediate an inhibition of TNFα mediated JNK signalling” and the “effect on TNFα-stimulated JNK phosphorylation” value (human PAR2 [5]) is listed as “strongly inhibited both the phosphorylation and activity of JNK”.

With tumour necrosis factor-α [TNFα] the “TNFα stimulation of JNK phosphorylation and activity” value (JNK) was “stimulated JNK phosphorylation and activity as expected”, the “ERK activation” value (ERK) was “negligible” and the “TRADD recovery with TNFR1 on stimulation” value (TNFR1/TRADD) was “marked increase in both TRADD and RIP recovery”. The “RIP recovery with TNFR1 on stimulation” value (TNFR1/RIP) was “marked increase in both TRADD and RIP recovery”.
